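Briefly, cells in 96-well plates were exposed to five compound concentrations for 48 h, and endpoints were estimated by linear interpolation. The concentration for 50% growth inhibition is given as GI50.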 Active and inactive are the calls of the source. No stated cut-off is given here; in the data, active = GI50 up to about 1.1 µM and inactive = higher.
Tests used:
Test in all cases: NCI-60 cell line screen, 48 h
HCC 2998 = system: HCC 2998
CCRF-CEM = system: CCRF-CEM
HCT-15 = system: HCT-15
MDA-MB-435 = system: MDA-MB-435
SF-268 = system: SF-268
HOP-92 = system: HOP-92
PC-3 = system: PC-3
SN12C = system: SN12C
K562 = system: K562
HOP-62 = system: HOP-62
ACHN = system: ACHN
SF-539 = system: SF-539
SF-295 = system: SF-295
CAKI-1 = system: CAKI-1
NCI/ADR-RES = system: NCI/ADR-RES
TK-10 = system: TK-10
NCI-H23 = system: NCI-H23
HT-29 = system: HT-29
A549 = system: A549
SNB-19 = system: SNB-19

Structure (SMILES) | GI50 (HCC 2998) | GI50 (CCRF-CEM) | GI50 (HCT-15) [µM] | GI50 (MDA-MB-435) | GI50 (SF-268) | GI50 (HOP-92) | GI50 (PC-3) | GI50 (SN12C) | GI50 (K562) | GI50 (HOP-62) | GI50 (ACHN) | GI50 (SF-539) | GI50 (SF-295) | GI50 (CAKI-1) | GI50 (NCI/ADR-RES) | GI50 (TK-10) | GI50 (NCI-H23) | GI50 (HT-29) | GI50 (A549) | GI50 (SNB-19)
CC(=O)N1N=C(c2c(O)ccc3ccccc23)CC1c1ccc(Cl)cc1 (stereo unspecified) | 17.7 µM (inactive) | 3.8 µM (inactive) | 28.4 | 22.4 µM (inactive) | 26.3 µM (inactive) | 10.9 µM (inactive) | 17 µM (inactive) | 18.7 µM (inactive) | 13.1 µM (inactive) | 16 µM (inactive) | 25.5 µM (inactive) | 18.4 µM (inactive) | 19.9 µM (inactive) | 32.9 µM (inactive) | 14.5 µM (inactive) | 30.1 µM (inactive) | 15.1 µM (inactive) | 24.7 µM (inactive) | 23.6 µM (inactive) | –
C/C(=N\NC(=S)N1CCCCCC1)c1cccc2cccnc12 | 2.76 µM (inactive) | < 0.01 µM (active) | 0.287 | 1.71 µM (inactive) | 4.29 µM (inactive) | 11.7 µM (inactive) | 3.81 µM (inactive) | – | 0.131 µM (active) | 1.15 µM (inactive) | 0.375 µM (active) | 0.845 µM (active) | 0.271 µM (active) | 0.355 µM (active) | 1.03 µM (active) | 2.48 µM (inactive) | 1.32 µM (inactive) | 1.4 µM (inactive) | 1.13 µM (inactive) | 1.76 µM (inactive)
N#Cc1ccc(C(O)C(F)(F)c2nc3ccccc3o2)cc1 (stereo unspecified) | > 100 µM (inactive) | 45.5 µM (inactive) | > 100 | 44.8 µM (inactive) | > 100 µM (inactive) | 53.3 µM (inactive) | 33.1 µM (inactive) | – | 18.2 µM (inactive) | > 100 µM (inactive) | 83.9 µM (inactive) | 43.9 µM (inactive) | 41.8 µM (inactive) | 31 µM (inactive) | 60.5 µM (inactive) | > 100 µM (inactive) | > 100 µM (inactive) | 81.3 µM (inactive) | – | > 100 µM (inactive)
COC(=O)c1c(C(=O)OC)c2c3ccccc3n(C)c2c2c1c1ccccc1n2C | > 100 µM (inactive) | > 100 µM (inactive) | > 100 | > 100 µM (inactive) | – | > 100 µM (inactive) | 54.6 µM (inactive) | > 100 µM (inactive) | > 100 µM (inactive) | 19.3 µM (inactive) | > 100 µM (inactive) | 45.9 µM (inactive) | 91.4 µM (inactive) | > 100 µM (inactive) | > 100 µM (inactive) | > 100 µM (inactive) | > 100 µM (inactive) | > 100 µM (inactive) | 65.2 µM (inactive) | 27.6 µM (inactive)
O=C(NN1C(=O)C(Cl)C1c1ccc(Cl)cc1)c1c(Cl)c(Cl)c(Cl)c(Cl)c1-c1nc2ccccc2[nH]1 (stereo unspecified) | 15.1 µM (inactive) | 8.39 µM (inactive) | 17.6 | 20.1 µM (inactive) | 25.8 µM (inactive) | 13.5 µM (inactive) | 25.6 µM (inactive) | 23 µM (inactive) | 20.1 µM (inactive) | 40.2 µM (inactive) | 18.9 µM (inactive) | 32.4 µM (inactive) | 23.9 µM (inactive) | 3.73 µM (inactive) | 33 µM (inactive) | – | 21.5 µM (inactive) | 25.2 µM (inactive) | 26.4 µM (inactive) | 36.1 µM (inactive)
CC1=NN(c2nc(N)nc(/C(C#N)=C/c3cccn3-c3cc(Cl)cc(Cl)c3)n2)C(C)(C)C1 | > 100 µM (inactive) | 4.47 µM (inactive) | > 100 | > 100 µM (inactive) | 15.5 µM (inactive) | > 100 µM (inactive) | 11.5 µM (inactive) | 35.2 µM (inactive) | – | 10.1 µM (inactive) | > 100 µM (inactive) | > 100 µM (inactive) | > 100 µM (inactive) | > 100 µM (inactive) | > 100 µM (inactive) | > 100 µM (inactive) | > 100 µM (inactive) | > 100 µM (inactive) | > 100 µM (inactive) | 40.6 µM (inactive)
Cc1ccc(S(=O)(=O)Nn2c(O)c(C#N)c(-c3ccc(Cl)cc3)c(C#N)c2=O)cc1 | > 100 µM (inactive) | > 100 µM (inactive) | > 100 | > 100 µM (inactive) | > 100 µM (inactive) | > 100 µM (inactive) | > 100 µM (inactive) | > 100 µM (inactive) | > 100 µM (inactive) | > 100 µM (inactive) | > 100 µM (inactive) | > 100 µM (inactive) | > 100 µM (inactive) | > 100 µM (inactive) | > 100 µM (inactive) | > 100 µM (inactive) | – | > 100 µM (inactive) | > 100 µM (inactive) | > 100 µM (inactive)
Cc1cc(N(CCC#N)CCC#N)ccc1/C=C(\NC(=O)/C=C/c1ccccc1)C(=O)Nc1ccc(Cl)cc1 | 4.33 µM (inactive) | 2.44 µM (inactive) | 11.7 | 1.94 µM (inactive) | > 100 µM (inactive) | > 100 µM (inactive) | 0.586 µM (active) | > 75.7 µM (inactive) | 0.364 µM (active) | – | 1.83 µM (inactive) | 6.81 µM (inactive) | 4.86 µM (inactive) | > 28.3 µM (inactive) | > 100 µM (inactive) | > 100 µM (inactive) | > 63.1 µM (inactive) | > 14.3 µM (inactive) | > 36.5 µM (inactive) | > 100 µM (inactive)

— ChEMBL document CHEMBL1201862, “PubChem BioAssay data set” (2004)
